In brackets after ≈: the same amount, converted by molar mass. Where a name gives a salt, the structure may show the parent alone. Read-outs that look alike come from different tables or passages of the source.
Legend:
Format in all cases: cell-based
[1] = tested on: Aspergillus flavus AFL1 (ATCC MYA-3631); assay: Fungal MIC Protocol, Aspergillus flavus; conditions: Aspergillus flavus, read-out: MIC Aspergillus flavus 3631
Procedure: (§1) Fungal MIC Protocol: RPMI/MOPS media (Roswell Park Memorial Institute/3-morpholinopropane-1-sulfonic acid media) is prepared by dissolving 8.4 grams RPMI […] (Sigma cat #R1383), 34.52 grams MOPS buffer (Sigma cat #M3.183) and 2 […] glucose in 900 mL deionized water. The pH is adjusted to 7.0 with NaOH and filter sterilized. 0.1 mL, of a stock spore suspension (or loop from frozen stock) is inoculated to a 75 mL tissue culture flask (Falcon cat #353136) containing 50 mL of Potato Dextrose Agar (PDA, 24 grams PD broth (Fisher cat #DF 0549179), 20 grams agar (Fisher cat #BP 1423500) per liter water). Aspergillus and Fusarium strains are grown at 35° C. and Mucor strains are grown at room temperature for 3-5 days. Spores are harvested by flooding the flask with 5 mL phosphate buffered saline (PBS) pH 7.4+0.1% Tween-20 and several glass beads (Fisher cat #S800243) are added to aid in agitation. The supernatant is removed and the OD530 of a 1:100 dilution is measured. Spores are diluted in RPMI/MOPS to a final OD530 of 0.002 for Aspergillus and an OD530 of 0.005 for Fusarium and Mucor. The final concentration of spores is approximately 2×10^4 cfu/mL. Test compound(s) are diluted to 200 ug/mL in RPMI/MOPS ([…]). Ten (10) serial dilutions are prepared with RPMI/MOPS in a 96-well round bottom plate (Fisher cat #353136). For Mucor strains a sterile flat-bottom 96-well plate is used. 50 μl of compound dilutions in duplicate are added to a sterile 96-well round bottom plate. 50 ul of diluted spores are added to the compound-containing plates. Control wells include 1) compound but no cells and 2) spores but no compound. Mix the plates gently by hand, place in ziplock bags and
(§2) incubate at 35° C. for 48 hours. […]

[2] = tested on: Aspergillus fumigatus T33439 (ATCC MYA-3626); assay: Fungal MIC Protocol, Aspergillus fumigatus; conditions: Aspergillus fumigatus, read-out: MIC Aspergillus fumigatus 3626
Procedure: as §1, §2

[3] = tested on: Fusarium falciforme FS1 (ATCC MYA-3636); assay: Fungal MIC Protocol, Fusarium falciforme; conditions: Fusarium falciforme, read-out: MIC Fusarium falciforme 3636
Procedure: as §1, §2

[4] = tested on: Fusarium solani (ATCC 58877); assay: Fungal MIC Protocol, Fusarium solani; conditions: Fusarium solani, read-out: MIC Fusarium solani 58877
Procedure: as §1, §2

[5] = tested on: Mucor circinelloides 1463(62) (ATCC 26759); assay: Fungal MIC Protocol, Mucor circinelloides (MIC-50); conditions: Mucor circinelloides, read-out: MIC-50 Mucorales circinelloides 26579
Procedure: as §1
(§3) incubate at 35° C. for 48 hours. Score the MIC visually (lowest concentration of compound showing >50% growth inhibition) using an inverted mirror.

[6] = tested on: Mucor ramosissimus 057718 (ATCC 90286); assay: Fungal MIC Protocol, Mucor ramosissimus (MIC-50); conditions: Mucor ramosissimus, read-out: MIC-50 Mucorales ramosissimus 90286
Procedure: as §1, §3

[7] = 100% growth inhibition at 48 hours
[8] = ATCC58877, 100% growth inhibition at 48 hours
[9] = ATCC26759, 50% growth inhibition at 48 hours
[10] = ATCC90286, 50% growth inhibition at 48 hours

Row | MIC [1, 7] [µg/mL] | MIC [2, 7] [µg/mL] | MIC [3, 7] [µg/mL] | MIC [4, 8] [µg/mL] | MIC50 [5, 9] [µg/mL] | MIC50 [6, 10] [µg/mL] | Compound | MIC ([1]; 48 h) [µg/mL] | MIC ([2]; 48 h) [µg/mL] | MIC ([3]; 48 h) [µg/mL] | MIC ([4]; ATCC58877, 48 h) [µg/mL] | MIC50 ([5]; ATCC26759, 48 h) [µg/mL] | MIC50 ([6]; ATCC90286, 48 h) [µg/mL]
1 | < 0.1 | < 0.1 | < 0.1 | < 0.1 | > 100 | > 100 | Cn1c(-c2ccc(C3=CCN(C(=N)N)C3)cc2F)nnc1-c1ccc(C2=CCN(C(=N)N)C2)cc1F [Example 28, 3,3′-(4,4′-(4-Methyl-4H-1,2,4-triazole-3,5-diyl)bis(3-fluoro-4,1-phenylene)) bis(2,5-dihydro-1H-pyrrole-1-carboximidamide)] |  |  |  |  |  | 
2 | 0.78 | 0.39 | 0.2 | 0.1 | 6.25 | 12.5 | CN(C)CCn1c(-c2ccc(C3=CCN(C(=N)N)CC3)cc2F)nnc1-c1ccc(C2=CCN(C(=N)N)CC2)cc1F.Cl [Example 72, 4-(4-{5-[4-(1-carbamimidoyl-1,2,3,6-tetrahydropyridin-4-yl)-2-fluorophenyl]-4-[2-(dimethylamino)ethyl]-4H-1,2,4-triazol-3-yl}-3-fluorophenyl)-1,2,3,6-tetrahydropyridine-1-carboximidamide hydrochloride] |  |  |  |  |  | 
3 | 0.78 (≈ 1.31 µM) | 0.39 (≈ 0.657 µM) | < 0.1 | 0.39 (≈ 0.657 µM) | 0.78 (≈ 1.31 µM) | 0.78 (≈ 1.31 µM) | N=C(N)N1CC=C(c2ccc(-c3nnc(-c4ccc(C5=CCN(C(=N)N)CC5)cc4F)n3Cc3ccccc3)c(F)c2)CC1 [Example 18] |  |  |  |  |  | 
4 | 0.39 (≈ 0.768 µM) | < 0.1 | < 0.1 | 0.2 (≈ 0.394 µM) | 0.39 (≈ 0.768 µM) | 1.56 (≈ 3.07 µM) | N=C(N)N1CC=C(c2ccc(-c3nnc(-c4ccc(C5=CCN(C(=N)N)CC5)cc4)n3C3CC3)cc2)CC1 [Example 4, 4,4′-(4,4′-(4-Cyclopropyl-4H-1,2,4-triazole-3,5-diyl)bis(4,1-phenylene)) bis(5,6-dihydropyridine-1(2H)-carboximidamide)] |  |  |  |  |  | 
5 | 0.78 (≈ 1.29 µM) | 0.39 (≈ 0.644 µM) | 0.1 (≈ 0.165 µM) | 0.1 (≈ 0.165 µM) | 1.56 (≈ 2.58 µM) | 6.25 (≈ 10.3 µM) | COCCOCCn1c(-c2ccc(C3=CCN(C(=N)N)CC3)cc2F)nnc1-c1ccc(C2=CCN(C(=N)N)CC2)cc1F [Example 81, 4-(4-{5-[4-(1-carbamimidoyl-1,2,3,6-tetrahydropyridin-4-yl)-2-fluorophenyl]-4-[2-(2-methoxyethoxy)ethyl]-4H-1,2,4-triazol-3-yl}-3-fluorophenyl)-1,2,3,6-tetrahydropyridine-1-carboximidamide] |  |  |  |  |  | 
6 | 6.25 (≈ 11.5 µM) | 6.25 (≈ 11.5 µM) | 1.56 (≈ 2.86 µM) | 1.56 (≈ 2.86 µM) | 6.25 (≈ 11.5 µM) | 50 (≈ 91.6 µM) | Cn1c(-c2ccc(C3=CCC(NC(=N)N)CC3)cc2F)nnc1-c1ccc(C2=CCC(NC(=N)N)CC2)cc1F (stereo not shown) [Example 40, 1-[4-(4-{5-[4-(4-Carbamimidamidocyclohex-1-en-1-yl)-2-fluorophenyl]-4-methyl-4H-1,2,4-triazol-3-yl}-3-fluorophenyl)cyclohex-3-en-1-yl]guanidine] |  |  |  |  |  | 
7 | 12.5 (≈ 21.4 µM) | 100 (≈ 171 µM) |  |  | 12.5 (≈ 21.4 µM) | 100 (≈ 171 µM) | CC(C)Nc1cc(C2=CCN(C(=N)N)CC2)ccc1-c1nnc(-c2ccc(C3=CCN(C(=N)N)CC3)cc2F)n1C(C)C [Example 26, 4-(4-(5-(4-(1-Carbamimidoyl-1,2,3,6-tetrahydropyridin-4-yl)-2-(isopropylamino)phenyl)-4-isopropyl-4H-1,2,4-triazol-3-yl)-3-fluorophenyl)-5,6-dihydro pyridine-1(2H)-carboximidamide] |  |  |  |  |  | 
8 | 1.56 (≈ 2.8 µM) | 0.39 (≈ 0.699 µM) | < 0.1 | 0.39 (≈ 0.699 µM) | 1.56 (≈ 2.8 µM) | 6.25 (≈ 11.2 µM) | N=C(N)N1CC=C(c2ccc(-c3nnc(-c4ccc(C5=CCN(C(=N)N)CC5)cc4)n3Cc3ccccc3)cc2)CC1 [Example 5, 4,4′-(4,4′-(4-Benzyl-4H-1,2,4-triazole-3,5-diyl)bis(4,1-phenylene))bis(5,6-dihydropyridine-1(2H)-carboximidamide)] |  |  |  |  |  | 

Further lines, the compound ahead of its results:

Row | Compound | MIC [1, 7] [µg/mL] | MIC [2, 7] [µg/mL] | MIC [3, 7] [µg/mL] | MIC [4, 8] [µg/mL] | MIC50 [5, 9] [µg/mL] | MIC50 [6, 10] [µg/mL] | MIC ([1]; 48 h) [µg/mL] | MIC ([2]; 48 h) [µg/mL] | MIC ([3]; 48 h) [µg/mL] | MIC ([4]; ATCC58877, 48 h) [µg/mL] | MIC50 ([5]; ATCC26759, 48 h) [µg/mL] | MIC50 ([6]; ATCC90286, 48 h) [µg/mL]
9 | CC(O)Cn1c(-c2ccc(C3=CCN(C(=N)N)CC3)cc2F)nnc1-c1ccc(C2=CCN(C(=N)N)CC2)cc1F (stereo not shown) [Example 66, 4-(4-{5-[4-(1-carbamimidoyl-1,2,3,6-tetrahydropyridine-4-yl)-2-fluorophenyl]-4-(2-hydroxypropyl)-4H-1,2,4-triazol-3-yl}-3-fluorophenyl)-1,2,3,6-tetrahydropyridine-1-carboximidamide trifluoroacetate] |  |  |  |  |  |  | 0.39 | 0.2 | 0.1 | 0.2 | 1.56 | 6.25
10 | CC(C)(O)Cn1c(-c2ccc(C3=CCN(C(=N)N)CC3)cc2F)nnc1-c1ccc(C2=CCN(C(=N)N)CC2)cc1F [Example 74, 4-(4-{5-[4-(1-carbamimidoyl-1,2,3,6-tetrahydropyridin-4-yl)-2-fluorophenyl]-4-(2-hydroxy-2-methylpropyl)-4H-1,2,4-triazol-3-yl}-3-fluorophenyl)-1,2,3,6-tetrahydropyridine-1-carboximidamide hydrochloride] |  |  |  |  |  |  | 0.78 | 0.39 | 0.1 | 0.1 | 1.56 | 3.13
11 | CC(CO)n1c(-c2ccc(C3=CCN(C(=N)N)CC3)cc2F)nnc1-c1ccc(C2=CCN(C(=N)N)CC2)cc1F (stereo not shown) [Example 83, 4-(4-{5-[4-(1-carbamimidoyl-1,2,3,6-tetrahydropyridin-4-yl)-2-fluorophenyl]-4-(1-hydroxypropan-2-yl)-4H-1,2,4-triazol-3-yl}-3-fluorophenyl)-1,2,3,6-tetrahydropyridine-1-carboximidamide hydrochloride] |  |  |  |  |  |  | 0.78 | 0.39 | 0.2 | 0.2 | 1.56 | 12.5
12 | N=C(N)N1CC=C(c2ccc(-c3nnc(-c4ccc(C5=CCN(C(=N)N)CC5)cc4F)n3C(CO)CO)c(F)c2)CC1 [Example 71, 4-(4-{5-[4-(1-carbamimidoyl-1,2,3,6-tetrahydropyridin-4-yl)-2-fluorophenyl]-4-(1,3-dihydroxypropan-2-yl}-4H-1,2,4-triazol-3-yl)-3-fluorophenyl)-1,2,3,6-tetrahydropyridine-1-carboximidamide hydrochloride] |  |  |  |  |  |  | 3.13 | 1.56 | 1.56 | 0.39 | 25 | 25
13 | N=C(N)N1CC=C(c2ccc(-c3nnc(-c4ccc(C5=CCN(C(=N)N)CC5)cc4F)n3CCOCCO)c(F)c2)CC1 [Example 77, 4-(4-{5-[4-(1-carbamimidoyl-1,2,3,6-tetrahydropyridin-4-yl)-2-fluorophenyl]-4-[2-(2-hydroxyethoxy)ethyl]-4H-1,2,4-triazol-3-yl}-3-fluorophenyl)-1,2,3,6-tetrahydropyridine-1-carboximidamide trifluoroacetate] |  |  |  |  |  |  | 0.78 | 0.2 | 0.2 | 0.2 | 6.25 | 25
14 | COc1cc(-c2nnc(-c3ccc(C4=CCN(C(=N)N)CC4)c(OC)c3)n2CCO)ccc1C1=CCN(C(=N)N)CC1 [Example 76, 4-(4-{5-[4-(1-carbamimidoyl-1,2,3,6-tetrahydropyridin-4-yl)-3-methoxyphenyl]-4-(2-hydroxyethyl)-4H-1,2,4-triazol-3-yl}-2-methoxyphenyl)-1,2,3,6-tetrahydropyridine-1-carboximidamide trifluoroacetate] |  |  |  |  |  |  | 3.13 | 0.78 | 0.78 | 0.39 | 25 | 25

— patent US20240018121A1, “NOVEL HETEROAROMATIC COMPOUNDS EXHIBITING ANTIFUNGAL ACTIVITY AND THEIR METHOD OF USE” (FOX CHASE CHEMCIAL DIVERSITY CENTER, INC., priority 2020, published 2024)
